Results from PubChem BioAssay AID248 (DTP/NCI, 2004).
Values joined by “and” are separate entries in the source; they are usually repeats but may differ in a detail not shown here. Equal values may be shown once. Inconclusive results and toxic doses are left out. Cut-off read from the data, not from the text of the source: active = T/C of 150% or more; inactive = T/C below 125%.

System: L1210 leukemia ip in BDF1 mice, survival T/C
Assay: NCI In Vivo Anticancer Drug Screen. Data for tumor model L1210 Leukemia (intraperitoneal) in B6D2F1 (BDF1) mice
Details: endpoint: mean survival time, higher = longer survival
Method in brief: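 Transplanted-tumor mice were given test agent; controls received vehicle only. Survival readings from the two groups were divided (treated over control).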

[1] = dose: 100.0 mg/kg/injection, schedule: Q04DX003 (ip), vehicle: Klucel (hydroxypropylcellulose) (HPC)
[2] = dose: 200.0 mg/kg/injection, schedule: Q04DX003 (ip), vehicle: Klucel (hydroxypropylcellulose) (HPC)
[3] = dose: 400.0 mg/kg/injection, schedule: Q01DX009 (ip), vehicle: Klucel (hydroxypropylcellulose) (HPC)
[4] = dose: 400.0 mg/kg/injection, schedule: Q04DX003 (ip), vehicle: Klucel (hydroxypropylcellulose) (HPC)
[5] = dose: 100.0 mg/kg/injection, schedule: Q01DX001 (ip), vehicle: saline
[6] = dose: 200.0 mg/kg/injection, schedule: Q01DX001 (ip), vehicle: saline
[7] = dose: 400.0 mg/kg/injection, schedule: Q01DX001 (ip), vehicle: saline
[8] = dose: 50.0 mg/kg/injection, schedule: Q01DX009 (ip), vehicle: saline
[9] = dose: 100.0 mg/kg/injection, schedule: Q01DX009 (ip), vehicle: saline
[10] = dose: 200.0 mg/kg/injection, schedule: Q01DX009 (ip), vehicle: saline
[11] = dose: 100.0 mg/kg/injection, schedule: Q04DX003 (ip), vehicle: saline
[12] = dose: 200.0 mg/kg/injection, schedule: Q04DX003 (ip), vehicle: saline
[13] = dose: 400.0 mg/kg/injection, schedule: Q04DX003 (ip), vehicle: saline
[14] = dose: 100.0 mg/kg/injection, schedule: Q04DX003 (ip), vehicle: saline with Tween-80
[15] = dose: 200.0 mg/kg/injection, schedule: Q04DX003 (ip), vehicle: saline with Tween-80
[16] = dose: 400.0 mg/kg/injection, schedule: Q04DX003 (ip), vehicle: saline with Tween-80
[17] = dose: 50.0 mg/kg/injection, schedule: Q01DX001 (ip), vehicle: saline
[18] = dose: 25.0 mg/kg/injection, schedule: Q01DX009 (ip), vehicle: saline
[19] = dose: 25.0 mg/kg/injection, schedule: Q01DX009 (ip), vehicle: saline with Tween-80
[20] = dose: 50.0 mg/kg/injection, schedule: Q01DX009 (ip), vehicle: saline with Tween-80
[21] = dose: 200.0 mg/kg/injection, schedule: Q01DX009 (ip), vehicle: saline with Tween-80
[22] = dose: 100.0 mg/kg/injection, schedule: Q01DX009 (ip), vehicle: saline with Tween-80
[23] = dose: 400.0 mg/kg/injection, schedule: Q01DX009 (ip), vehicle: saline with Tween-80

Measured: T/C

Cc1cc(C)c(S(=O)(=O)c2c(C)cc(C)c([N+](=O)[O-])c2C)c(C)c1[N+](=O)[O-]
inactive: dose: 100.0 mg/kg/injection, schedule: Q01DX009 (ip), vehicle: Klucel (hydroxypropylcellulose) (HPC) 98 % of control | [1] 92 % of control | dose: 200.0 mg/kg/injection, schedule: Q01DX009 (ip), vehicle: Klucel (hydroxypropylcellulose) (HPC) 88 % of control | [2] 93 % of control | [3] 88 % of control | [4] 90 % of control

CC1(N)COP(=O)(NCc2ccccc2)OC1 (stereo not given)
inactive: [5] 95 % of control | [6] 103 % of control | [7] 103 % of control

O=c1sc(N=Nc2ccccc2)nn1-c1ccccc1
inactive: [8] 91 % of control | [9] 88 % of control | [10] 93 % of control

CC(=O)OC1/C(=C/c2ccco2)CCC2CCCCC21C (stereo not given)
inactive: [8] 96 % of control | [5] 91 % of control | [9] 103 % of control | [6] 88 % of control | [10] 108 % of control | [7] 93 % of control

C(=C\c1nc2ccccc2nc1/C=C/c1ccc2c(c1)OCO2)/c1ccc2c(c1)OCO2
inactive: dose: 12.5 mg/kg/injection, schedule: Q01DX009 (ip), vehicle: Klucel (hydroxypropylcellulose) (HPC) 95 % of control | dose: 25.0 mg/kg/injection, schedule: Q01DX009 (ip), vehicle: Klucel (hydroxypropylcellulose) (HPC) 92 % of control | dose: 50.0 mg/kg/injection, schedule: Q01DX009 (ip), vehicle: Klucel (hydroxypropylcellulose) (HPC) 100 % of control | [1] 102 % of control | [2] 96 % of control | [3] 86 % of control | [4] 95 % of control

O=C1CCC2(CC2)C(=O)O1
inactive: [11] 91 % of control | [12] 95 % of control | [13] 91 % of control

CNc1ncnc(NC)c1[N+](=O)[O-]
inactive: dose: 100.0 mg/kg/injection, schedule: Q04DX002 (ip), vehicle: Klucel (hydroxypropylcellulose) (HPC) 101 % of control | dose: 200.0 mg/kg/injection, schedule: Q04DX002 (ip), vehicle: Klucel (hydroxypropylcellulose) (HPC) 90 % of control

CCCNC(=O)CS(=O)(=O)c1ccc(N)cc1
inactive: [14] 97 % of control | [15] 95 % of control | [16] 97 % of control

N#Cc1ccccc1CC(=O)c1ccccc1
inactive: [17] 101 % of control | [5] 97 % of control | [6] 93 % of control | [7] 100 % of control

Nc1cc(Nc2ccc(CCO)cc2)nc(N)n1
inactive: dose: 200.0 mg/kg/injection, schedule: Q01DX Z (ip), vehicle: methylcellulose (MC) 86 % of control

O=C/C=C/C=C/C=C/C=C/C=C\c1ccccc1
inactive: dose: 75.0 mg/kg/injection, schedule: Q01DX001 (ip), vehicle: other 92 % of control | dose: 150.0 mg/kg/injection, schedule: Q01DX001 (ip), vehicle: other 96 % of control | dose: 300.0 mg/kg/injection, schedule: Q01DX001 (ip), vehicle: other 100 % of control

CCS(=O)(=O)/C=C/c1ccco1
inactive: dose: 12.5 mg/kg/injection, schedule: Q04DX003 (ip), vehicle: carboxymethylcellulose (CMC) 98 % of control | dose: 25.0 mg/kg/injection, schedule: Q04DX003 (ip), vehicle: carboxymethylcellulose (CMC) 95 % of control

Nc1nc2nnc(CNc3ccc(C(=O)NC(CCC(=O)O)C(=O)O)cc3)nc2c(=O)[nH]1 (stereo not given)
inactive: dose: 100.0 mg/kg/injection, schedule: Q01DX001 (ip), vehicle: Klucel (hydroxypropylcellulose) (HPC) 94 % of control | dose: 200.0 mg/kg/injection, schedule: Q01DX001 (ip), vehicle: Klucel (hydroxypropylcellulose) (HPC) 103 % of control

CC(C)(c1ccccc1)[N+](C)(C)C
inactive: dose: 4.0 mg/kg/injection, schedule: Q01DX Z (ip), vehicle: saline 93 % of control | dose: 6.25 mg/kg/injection, schedule: Q01DX009 (ip), vehicle: saline 97 % of control | dose: 6.25 mg/kg/injection, schedule: Q04DX003 (ip), vehicle: saline 104 % of control | dose: 8.0 mg/kg/injection, schedule: Q01DX Z (ip), vehicle: saline 96 % of control | dose: 12.5 mg/kg/injection, schedule: Q01DX009 (ip), vehicle: saline 91 % of control | dose: 12.5 mg/kg/injection, schedule: Q04DX003 (ip), vehicle: saline 103 % of control | dose: 16.0 mg/kg/injection, schedule: Q01DX Z (ip), vehicle: saline 92 % of control | [18] 92 % of control | dose: 25.0 mg/kg/injection, schedule: Q04DX003 (ip), vehicle: saline 91 % of control

c1ccc(P(OCCCCOP(c2ccccc2)c2ccccc2)c2ccccc2)cc1
inactive: [17] 95 % of control | dose: 100.0 mg/kg/injection, schedule: Q01DX001 (ip), vehicle: carboxymethylcellulose (CMC) 103 % of control | [5] 97 % of control | dose: 200.0 mg/kg/injection, schedule: Q01DX001 (ip), vehicle: carboxymethylcellulose (CMC) 114 % of control | [6] 86 % of control | dose: 400.0 mg/kg/injection, schedule: Q01DX001 (ip), vehicle: carboxymethylcellulose (CMC) 103 % of control | [7] 95 % of control

CCOC(=O)c1ccc(NC(=O)Nc2cc(OC)ccc2OC)cc1
inactive: [19] 100 % of control and 91 % of control | [20] 95 % of control | dose: 100.0 mg/kg/injection, schedule: Q01DX001 (ip), vehicle: saline with Tween-80 98 % of control | dose: 100.0 mg/kg/injection, schedule: Q04DX002 (ip), vehicle: saline with Tween-80 96 % of control | [14] 96 % of control | dose: 200.0 mg/kg/injection, schedule: Q01DX001 (ip), vehicle: saline with Tween-80 95 % of control | [21] 91 % of control | dose: 200.0 mg/kg/injection, schedule: Q04DX002 (ip), vehicle: saline with Tween-80 100 % of control | dose: 400.0 mg/kg/injection, schedule: Q01DX001 (ip), vehicle: saline with Tween-80 91 % of control | dose: 400.0 mg/kg/injection, schedule: Q04DX002 (ip), vehicle: saline with Tween-80 94 % of control

CC(=O)Nc1ccc(S(=O)(=O)Nc2ccc([N+](=O)[O-])cc2)cc1
inactive: [19] 96 % of control | [20] 100 % of control | [22] 98 % of control and 87 % of control | [14] 109 % of control | [21] 95 % of control and 94 % of control | [15] 109 % of control | [23] 97 % of control and 94 % of control | [16] 109 % of control

Cc1cccc(C)c1OCC1=NCCN1
inactive: dose: 12.0 mg/kg/injection, schedule: Q01DX009 (ip), vehicle: saline 105 % of control | [18] 111 % of control | [8] 108 % of control

O=C(O)CCC(=O)c1ccc2ccccc2c1
inactive: [1] 100 % of control | [2] 91 % of control | [4] 92 % of control

CNC(=S)N/N=C/CSC/C=N/NC(=S)NC
inactive: dose: 0.2 mg/kg/injection, schedule: Q03HX024 (ip), vehicle: saline with Tween-80 100 % of control | dose: 0.39 mg/kg/injection, schedule: Q03HX024 (ip), vehicle: saline with Tween-80 97 % of control | dose: 0.78 mg/kg/injection, schedule: Q03HX024 (ip), vehicle: saline with Tween-80 93 % of control | dose: 1.56 mg/kg/injection, schedule: Q03HX024 (ip), vehicle: saline with Tween-80 108 % of control | dose: 3.13 mg/kg/injection, schedule: Q03HX024 (ip), vehicle: saline with Tween-80 100 % of control

CCCCCCC1CC1
inactive: [8] 94 % of control | [9] 102 % of control | [10] 102 % of control

CCOC(=O)CCc1c(C)c2ccc(O)cc2oc1=O
inactive: [5] 98 % of control | [6] 104 % of control | [7] 94 % of control

O=C(CCCO)N/N=C\c1ccc([N+](=O)[O-])s1
inactive: [11] 95 % of control | [12] 93 % of control | [13] 101 % of control

COc1ccccc1NC(=O)Nc1ccccc1Cl
inactive: [22] 88 % of control | [14] 89 % of control | [21] 112 % of control | [15] 92 % of control | [23] 92 % of control | [16] 89 % of control
